“Also recorded” adds a separate entry of the source. Like-named read-outs stand apart in the source and are kept apart here.
Assays:
Cytotoxicity assay (MTT) = settings: mouse
Experimental: (§3) The toxicities of different concentrations of compounds to cells were evaluated using the MTT assay [32, 33]. Firstly, the RAW 264.7 cells were maintained in DMEM with 10% FBS at 37 °C in a humid atmosphere containing 5% CO2. Then, the cells were seeded in 96-well plates (3 × 10^4 cells/well) after being passaged three times at a 1:3 split ratio. […] After being cultured for 24 h, the supernatant (100 μL) was transferred out and MTT (5 mg/mL, 20 μL for each well) was added, and the mixed solvent of 0.012 M HCl, 5% i-PrOH, and 10% sodium dodecyl sulfate (100 μL) was added 4 h later. The absorbance value was measured at 492 nm by a Thermo Multiskan MK3 microplate reader (Thermo-Labsystem, Franklin, MA, USA).

[1] = test system: nitric oxide (NO) production in RAW264.7 macrophages stimulated by lipopolysaccharide; experiment: NO inhibition assay (Griess method) in LPS-stimulated RAW264.7 cells; type: cell-based; settings: for IC50: read-out: IC50 of inhibition of NO production; for SI (selectivity index): calculated from CC50 and IC50
Text: As a kind of pro-inflammatory mediator, NO plays a complex role and participates in many different kinds of inflammatory reactions, the level of which usually varies to different pathological degrees. The isolated novel compounds and 10 known ones in this research were chosen to evaluate the activity of inhibiting NO released by RAW264.7 cells after being stimulated by LPS.
The Griess method is generally used for determining NO concentration in anti-inflammatory experiments. The supernatant removed from the 96-well plates mentioned in Section 3.3.1 was interacted with Griess reagent (100 μL), and the absorbance was measured at 540 nm after 15 min. Two drugs, L-NIL and IND, were used as positive controls for comparative analysis in the test.
(§1) The IC50 values for NO inhibitory effects were calculated using SPSS v.20.0 (SPSS Inc., Chicago, IL, USA) and results were given as means ± SD. The mRNA expression levels were compared using variance analysis with GraphPad Prism 7.0 (GraphPad Software Inc., San Diego, CA, USA), and results were expressed as means ± SEM. All tests were carried out in triplicate.

IL-1β mRNA = experiment: qPCR assay of IL-1β mRNA expression in LPS-stimulated RAW264.7 cells; type: cell-based; settings: 24 h
Experimental: (§2) The RAW264.7 cells were seeded in 12-well plates at 3 × 10^4 cells/well; after being stimulated by LPS (1.0 μg/mL) and treated with two different concentrations of compounds for 24 h, the total RNA was extracted from the cells with Trizol reagent (Invitrogen, Thermo Fisher Scientific Inc., Waltham, MA, USA). After measuring the concentration, 1 μg of total RNA was used to obtain complementary DNA (cDNA) with a qRT super mix (Bimake Co., Ltd., Houston, SD, USA). The amplification of cDNA was carried out on a Quantitative RT-PCR system (Agilent Technologies, Stratagene, Inc., Santa Clara, CA, USA) using SYBR green qPCR master mix (Bimake Co., Ltd., Houston, SD, USA). The thermal cycling conditions were as follows: 95 °C for 10 min, 40 cycles of 95 °C for 30 s, 55 °C for 1 min, and 72 °C for 1 min, followed by 95 °C for 1 min, 55 °C for 30 s, and 95 °C for 30 s.
as §1

COX-2 mRNA = experiment: qPCR assay of COX-2 mRNA expression in LPS-stimulated RAW264.7 cells; type: cell-based; settings: 24 h
Experimental: as §2, §1

iNOS mRNA = experiment: qPCR assay of iNOS mRNA expression in LPS-stimulated RAW264.7 cells; type: cell-based; settings: 24 h
Experimental: as §2, §1

IL-6 mRNA = experiment: qPCR assay of IL-6 mRNA expression in LPS-stimulated RAW264.7 cells; type: cell-based; settings: 24 h
Experimental: After measuring the concentration, 1 μg of total RNA was used to obtain complementary DNA (cDNA) with a qRT super mix (Bimake Co., Ltd., Houston, SD, USA). The amplification of cDNA was carried out on a Quantitative RT-PCR system (Agilent Technologies, Stratagene, Inc., Santa Clara, CA, USA) using SYBR green qPCR master mix (Bimake Co., Ltd., Houston, SD, USA). The thermal cycling conditions were as follows: 95 °C for 10 min, 40 cycles of 95 °C for 30 s, 55 °C for 1 min, and 72 °C for 1 min, followed by 95 °C for 1 min, 55 °C for 30 s, and 95 °C for 30 s. […] The mRNA expression levels were compared using variance analysis with GraphPad Prism 7.0 (GraphPad Software Inc., San Diego, CA, USA), and results were expressed as means ± SEM. All tests were carried out in triplicate.

TNF-α mRNA = experiment: qPCR assay of TNF-α mRNA expression in LPS-stimulated RAW264.7 cells; type: cell-based; settings: 24 h
Experimental: as §2, §1

[2] = RAW 264.7 cells, CC50 (median cytotoxic concentration), RAW 264.7 cells, MTT, 24 h, n = 3, >200: CC50 could not be obtained, cell survival rate >98% at 200–6.25 μM
[3] = Mus musculus, RAW264.7, 24 h, RAW264.7 cells, LPS 1 μg/mL, 24 h, Griess, n = 3, mean ± SD
[4] = at 5 μM and 10 μM, LPS-stimulated RAW264.7 cells
[5] = LPS 1.0 μg/mL, RAW264.7 cells, concentration not given
[6] = at 20 μM and 30 μM, vs LPS group, RAW264.7 cells
[7] = RAW264.7 cells, LPS 1 μg/mL, 24 h, Griess, n = 3, mean ± SD
[8] = at 40 μM and 50 μM, LPS-stimulated RAW264.7 cells

Experimental for RAW 264.7 cells: as §3

| Molecule | CC50 at 24 h (Cytotoxicity assay (MTT); [2]) | IC50 [1, 3] | SI (selectivity index) [1] | effect on mRNA expression of COX-2 (COX-2 mRNA; [5]) | effect on mRNA expression of iNOS (iNOS mRNA; [5]) | effect on mRNA expression of TNF-α (TNF-α mRNA; [5]) | other results |
| --- | --- | --- | --- | --- | --- | --- | --- |
| COc1ccc2c(c1)c(CC(=O)O)c(C)n2C(=O)c1ccc(Cl)cc1 [IND, indomethacin, reference compound] | 633 ± 75.1 µM | 55.4 ± 3.71 µM | 11.43 | – | – | – | – |
| COc1c(O)ccc2c1OC[C@H](c1cc3c(cc1O)OCO3)[C@H]2O [Compound 2, (3S,4R)-7,2′-dihydroxy-8-methoxy-4′,5′-methylenedioxy-isoflavan-4-ol] | > 200 µM | 46.3 ± 5.83 µM | >4.32 | – | – | – | – |
| COC1=CC(=O)C=C(OC)C1=O [Compound 1, 2,6-dimethoxy-1,4-benzoquinone] | – | – | 4.61 | can reduce | can reduce | can reduce | CC50 at 24 h (Cytotoxicity assay (MTT); RAW 264.7 cells): 26.2 ± 1.26 µM; effect on mRNA expression of IL-1β (IL-1β mRNA; [4]): markedly reduced; effect on mRNA expression of COX-2 (COX-2 mRNA; [4]): markedly reduced; inhibition of NO production compared with L-NIL (in words) ([1]; LPS-stimulated RAW264.7 cells): potent inhibition; IC50 ([1]; Mus musculus, RAW264.7, 24 h): 5.69 ± 0.28 µM; effect on mRNA expression of iNOS (iNOS mRNA; [4]): markedly reduced; effect on mRNA expression of IL-6 (IL-6 mRNA; [4]): markedly reduced; effect on mRNA expression of TNF-α (TNF-α mRNA; [4]): markedly reduced |
| COc1ccc(-c2coc3cc(O)ccc3c2=O)cc1 [Compound 11, formononetin] | 103 ± 9.56 µM | 21.1 ± 4.8 µM | 4.88 | notably downregulated | notably downregulated | – | – |
| COc1ccc(-c2cc3cc(O)c(O)cc3oc2=O)c(OC)c1OC [Compound 6, 3-(2′,3′,4′-trimethoxyphenyl)-6,7-dihydroxycoumarin] | > 200 µM | 28.3 µM | 24.81 | can reduce | can reduce | can reduce | effect on mRNA expression of IL-1β (IL-1β mRNA; [6]): reduced significantly; IC50 [1, 7]: 28.3 ± 6.44 µM; effect on mRNA expression of iNOS (iNOS mRNA; [6]): reduced significantly; effect on mRNA expression of TNF-α (TNF-α mRNA; [6]): reduced significantly |
| 4,7,2′-trihydroxy-4′-methoxy-isoflavanol [Compound 3] | – | – | – | – | – | – | effect on mRNA expression of IL-1β (IL-1β mRNA; [8]): could inhibit; CC50 (RAW 264.7 cells): > 200 µM; IC50 [1, 7]: 35.4 ± 2.92 µM |
| CCCCCC(=O)CCC(=O)OCCc1ccc(O)c(OC)c1 [Compound 5, Homovanillyl-4-oxo-nonanoate] | > 200 µM | 45.9 ± 4.76 µM | >4.36 | – | – | – | – |
| COc1ccc(-c2coc3cc([O-])ccc3c2=O)cc1.[Na+] [Compound 7, formononetin sodium] | – | – | 14.73 | – | negate the effect | negate the effect | effect on mRNA expression of IL-1β (IL-1β mRNA; [5]): negate the effect; IC50 [1, 7]: 22.8 ± 0.55 µM; effect on mRNA expression of IL-6 (IL-6 mRNA; [5]): negate the effect |
| O=c1c(-c2ccc(O)cc2)coc2cc(O[C@@H]3O[C@H](CO)[C@@H](O)[C@H](O)[C@H]3O)cc(O)c12 [Compound 13, genistin] | > 200 µM | 36.4 ± 2.47 µM | – | could not inhibit | could not inhibit | could not inhibit | effect on mRNA expression of IL-1β (IL-1β mRNA; [5]): declined sharply |
| CC(=N)NCCCC[C@H](N)C(=O)O [L-NIL, L-N^6-(1-iminoethyl)-lysine, reference compound] | > 200 µM | – | >10.48 | – | – | – | IC50 ([1]; Mus musculus, RAW264.7, 24 h): 19.1 ± 1.18 µM |
| O=C1C[C@@H](c2ccc(O)cc2)Oc2cc(O)ccc21 [Compound 8, liquiritigenin] | > 200 µM | 16.3 ± 4.45 µM | 19.25 | – | – | significantly downregulate | – |
| COc1ccc(C2COc3cc(OC4OC(CO)C(O)C(O)C4O)ccc3C2O)c(O)c1 [Compound 14, (3S,4R)-4,2′-dihydroxy-4′-methoxy-isoflavanol-7-glucopyranoside] | > 200 µM | 123 ± 9.92 µM | 5.86 | – | – | – | – |
| O=C(/C=C/c1ccc(O)cc1)c1ccc(O)cc1O [Compound 10, isoliquiritigenin] | 133 ± 2.11 µM | 6.78 ± 0.59 µM | 19.68 | can reduce | can reduce | can reduce; also recorded: significantly downregulate | – |
| COc1ccc([C@@H]2COc3cc(O)ccc3C2)c(O[C@@H]2O[C@H](CO)[C@@H](O)[C@H](O)[C@H]2O)c1 [Compound 15, (3R)-vestitol-2′-O-β-D-glucopyranoside] | > 200 µM | > 200 µM | <1.98 | – | – | – | – |
| O=c1c(-c2ccc(O)cc2)coc2cc(O)ccc12 [Compound 12, daidzein] | > 200 µM | 35.5 ± 2.69 µM | 11.64 | – | – | – | effect on mRNA expression of IL-1β (IL-1β mRNA; [5]): inhibition; effect on mRNA expression of IL-6 (IL-6 mRNA; [5]): inhibition |
| Oc1ccc2c(c1)OC[C@H](c1cc3c(cc1O)OCO3)[C@H]2O [Compound 4, (3S,4R)-7,2′-dihydroxy-4′,5′-methylenedioxy-isoflavan-4-ol] | > 200 µM | 40.1 ± 6.94 µM | 7.50 | – | – | – | effect on mRNA expression of IL-1β (IL-1β mRNA; [8]): could inhibit |
| O=c1c(-c2ccc(O)cc2)coc2cc(O)cc(O)c12 [Compound 9, genistein] | – | 16.9 ± 3.39 µM | 210.84 | can reduce | can reduce | can reduce | CC50 at 24 h (Cytotoxicity assay (MTT)): > 200 µM; effect on mRNA expression of COX-2 (COX-2 mRNA; [6]): strikingly downregulated; effect on mRNA expression of iNOS (iNOS mRNA; [6]): strikingly downregulated; effect on mRNA expression of TNF-α (TNF-α mRNA; [6]): strikingly downregulated |

From article PMC6832230, “Anti-Inflammatory Activity of Some Characteristic Constituents from the Vine Stems of Spatholobus suberectus” (Molecules, 2019)
